# Tests used:
# [1] = system: primary mouse peritoneal macrophages; experiment: WST-1 assay in LPS-activated primary mouse peritoneal macrophages; type: cell-based; details: LPS 100 ng/mL, doses of up to 1 mM, 24 h, n=8
# Experimental: • 1. Non treatment (NT) • 2. LPS 100 ng/mL • 3. LPS 100 ng/mL+NDX1 dose1* • 4. LPS 100 ng/mL+NDX1 dose2* • 5. LPS 100 ng/mL+NDX1 dose3* • 6. LPS 100 ng/mL+NDX2 dose1 • 7. LPS 100 ng/mL+NDX2 dose2 • 8. LPS 100 ng/mL+NDX2 dose3 • 9. LPS 100 ng/mL+NAG dose2 • 10. LPS 100 ng/mL+NAG dose3 (*dose 1, 2, 3 were selected as low, middle and high dose with no cytotoxicity from the cytotoxic assay) The peritoneal macrophages were isolated from peritoneal cavity, and cultured in Dulbecco's modified Eagle's medium (DMEM, Gibco BRL, Gaithersburg, MD) supplemented with 10% fetal bovine serum (FBS) (Hyclone Laboratories, Logan, VT) and 100 IU/mL penicillin G and 100 µg/mL streptomycin, in a humidified atmosphere of 5% carbon dioxide at 37° C. Cells will grow on a 96-well plate and co-treated with 100 ng/ml LPS (Sigma-Aldrich) 0.5 hours after addition of BNAGs and NAG. Twenty-four hours later, the cell number was counted by using the WST-1 kit (Fisher Scientific). After removal of the supernatant, […] new medium was added into each cell. Then 15 μl Cell Proliferation Reagent WST-1 was added and incubated with cells for 3 hours in dark with a humidified atmosphere of 5% carbon dioxide at 37° C. Each sample was determined at 450 nm on a microplate reader.
# Cox-2 = experiment: Western blot of Cox-2 expression in LPS-activated RAW264.7 macrophages; type: cell-based, mouse; details: LPS 100 ng/mL; NDX1 0.1 and 1 mM, NDX2 and NAG 0.5 and 5 mM
# Experimental: (§1) Mouse RAW264.7 macrophage cell line (ATCC; Manassas, VA, USA) was maintained in DMEM culture medium containing 10% FBS and 1% antibiotic mix. For cell treatment, the test drugs at different doses were added to the culture 0.5 h prior to addition of 100 ng/mL LPS (Sigma-Aldrich Co., St Louis, MO, USA) and then cells were co-treated with LPS for 24 hours.
# The cellular proteins were prepared from cells growing on a 6-well plate (approximately 500,000/well) using a commercial cell lysis buffer (Thermo Scientific). Then the protein concentration was determined using the Bradford protein assay kit (Bio-Rad, Hercules, CA, USA). The samples containing 100 μg proteins were run on 10% SDS-polyacrylamide gels at a […] and electro-transferred to nitrocellulose membranes (Thermo Scientific) at a constant voltage of 10 V overnight. […] Using the magic wand tool from the tool palette, the area of each band was selected, and the mean histogram were recorded and then charted. […]
# IL-6 = IL-6 ELISA in LPS-activated RAW264.7 macrophages; type: cell-based, mouse; details: LPS 100 ng/mL, concentrations up to 5 mM, n=8
# Experimental: as §1
# The amounts of IL-6 in culture medium from different treatments were measured by a commercial ELISA kit (Sigma-Aldrich), following the instructions provided by the manufacturer. Briefly, cells were seeded on a 96-well plate and various treatments were performed. The culture medium were collected and mixed with different assay reagents step by step. The resultant solutions were read at 450 nm on a microplate reader. There were eight repeats in each group (n=8). *P<0.05 vs LPS group. The experiment was duplicated.
# nitric oxide = experiment: Griess nitrite production assay in LPS-activated RAW264.7 macrophages; type: cell-based, mouse; details: LPS 100 ng/mL; NDX1 0.2, 1 and 5 mM, NDX2 0.5 and 5 mM, NAG 0.5-5 mM; n=6
# Experimental: as §1
# The Griess reagent system is based on the chemical reaction which uses sulfanilamide and N-1-napthylethylenediamine dihydrochloride (NED) under acidic (phosphoric acid) conditions. This system detects nitrite production. In the present experiments, nitric oxide detection was performed by a commercial kit (Promega Corporation, Madison, WI, USA), according to the manufacturer's manual. Briefly, all experimental samples and standards containing the dilution series for the nitrite standard reference curve were mixed with 50 μL of the sulfanilamide solution and incubated 10 mins at room temperature without light in a 96-well plate. Then 50 μL of the NED Solution was added to each well and incubated 10 mins at room temperature without light. The optical density (OD) was determined at 530 nm on a microplate reader within 30 mins. No LPS and the other drugs were added in the non-treatment group (NT). The experiment was duplicated. There were six repeats in each group (n=6). […].
structure (smiles),measurement,setting,value
"CC(=O)N[C@H]1C(O)O[C@H](CO)[C@@H](O)[C@@H]1O (stereo partly shown) [NAG, N-acetyl glucosamine]",effect on cell number (WST-1) compared with LPS alone,[1],no significant effect on cell number
same,rank order for inhibition of Cox-2 expression (western blot),Cox-2,NAG>NDX2>NDX1
same,reduction of IL-6 production (ELISA),IL-6,could significantly reduce IL-6 production
same,inhibition of nitric oxide (nitrite) production,nitric oxide,couldn't
